This passage reports EC50 and IC50 results from patent publication US8431563B2 (priority 2010, dated 2013).

The target of assay [1] is T1, GKRP (Glucokinase Regulatory Protein) with human His-hepatic GK (Homo sapiens, UniProt Q14397).
T1 sequence (Q14397 1-625): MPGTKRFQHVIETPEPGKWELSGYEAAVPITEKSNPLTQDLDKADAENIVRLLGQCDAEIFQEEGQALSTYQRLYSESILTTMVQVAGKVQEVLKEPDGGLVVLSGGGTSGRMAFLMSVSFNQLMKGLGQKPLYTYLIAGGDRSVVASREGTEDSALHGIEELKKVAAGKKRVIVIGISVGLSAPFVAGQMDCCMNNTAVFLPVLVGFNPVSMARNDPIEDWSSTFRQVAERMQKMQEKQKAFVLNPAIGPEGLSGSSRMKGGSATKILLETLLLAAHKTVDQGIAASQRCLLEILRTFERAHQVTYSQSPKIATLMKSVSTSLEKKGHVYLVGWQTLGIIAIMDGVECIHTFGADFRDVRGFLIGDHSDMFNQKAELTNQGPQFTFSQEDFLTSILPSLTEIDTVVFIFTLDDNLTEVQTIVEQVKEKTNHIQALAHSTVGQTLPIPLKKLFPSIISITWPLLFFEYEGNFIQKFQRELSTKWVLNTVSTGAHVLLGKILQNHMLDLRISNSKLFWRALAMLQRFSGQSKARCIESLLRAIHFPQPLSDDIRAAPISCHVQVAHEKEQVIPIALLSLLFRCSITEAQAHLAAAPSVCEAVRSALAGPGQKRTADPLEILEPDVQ
Nature of the assay: biochemical. The following applies: 13C-glucose-6-phosphate formation, 280 nM GKRP (10×), 30 nM GK (5×). The method in brief:
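Human His-tagged hepatic GK (30 nM in the 5× working stock) in 50 mM Tris pH 7.5, 4 mM MgCl2, 6% DMSO with DTT, BSA and Brij-35. Enzyme was added after a 30 min step and reacted 30 min at room temperature. The reaction was stopped with acetonitrile and 13C-glucose-6-phosphate formed from 13C-glucose was quantified by LC MS/MS.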

For assay [2], the target named is T2, interaction between glucokinase (GK) and glucokinase regulatory protein (GKRP) (Homo sapiens, UniProt Q14397).
T2 sequence (Q14397 1-625): T1 sequence (Q14397 1-625)
The assay can be described thus: biochemical. It is filed as binding. The following applies: avi-tagged GKRP, GK-fluorescein, AlphaScreen beads. The method in brief:
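Avi-tagged human GKRP preincubated with compound for 20 min at room temperature, then 6 nM GK-fluorescein (concentration of added solution) introduced and incubated 2 h in the dark. Buffer: 20 mM Tris pH 7.5, 0.05% BSA, 1 mM DTT, 1 μM sorbitol-6-phosphate. Plate read on a fluorescence reader.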
(In general: In Alpha technology, singlet oxygen from a donor bead excites a nearby acceptor bead.)

Where [3] appears, read: read-out: GK-GKRP EC50 (LC MS/MS-2).
Setting [4] is: read-out: GK-GKRP IC50 (Binding).

Like-named read-outs stand apart in the source and are kept apart here.

As for `CC(C)C1C(=O)NCCN1C[C@H]1CN(S(=O)(=O)c2cccs2)CCN1c1ncc(C(O)(C(F)(F)F)C(F)(F)F)cn1` (mixture of isomers) [Example 185, 3-(1-methylethyl)-4-(((2S)-4-(2-thiophenylsulfonyl)-1-(5-(2,2,2-trifluoro-1-hydroxy-1-(trifluoromethyl)ethyl)-2-pyrimidinyl)-2-piperazinyl)methyl)-2-piperazinone], in assay [1] (setting [3]), the EC50 turned out to be 16 nM. Also, the IC50 – broadly, the concentration at which inhibition is half-maximal – in assay [2] (setting [4]) was 1 nM.

`O=S(=O)(c1cccs1)N1CCN(c2ncc(C(O)(C(F)(F)F)C(F)(F)F)cn2)[C@@H](CC2CCOCC2)C1` [Example 134, 1,1,1,3,3,3-hexafluoro-2-(2-((2S)-2-(tetrahydro-2H-pyran-4-ylmethyl)-4-(2-thiophenylsulfonyl)-1-piperazinyl)-5-pyrimidinyl)-2-propanol]: in assay [1] (setting [3]), the EC50 came out at 79 nM. In assay [2] (setting [4]), the IC50 was 122 nM.

As for `CS(=O)(=O)N(C[C@H]1CN(S(=O)(=O)c2ccc(N)nc2)CCN1c1ncc(C(O)(C(F)(F)F)C(F)(F)F)cn1)c1ccccc1` [Example 234, N-(((2R)-4-((6-amino-3-pyridinyl)sulfonyl)-1-(5-(2,2,2-trifluoro-1-hydroxy-1-(trifluoromethyl)ethyl)-2-pyrimidinyl)-2-piperazinyl)methyl)-N-phenylmethanesulfonamide], in assay [1] (setting [3]), the EC50 amounted to 17 nM. For the same compound, the IC50 in assay [2] (setting [4]) was 4 nM.

For the compound `CC(O)(c1ccc(N2CCN(S(=O)(=O)c3cccs3)C[C@@H]2CN2C3COCC2C(O)C3)cc1)C(F)(F)F` (stereo partly drawn) [Example 78, 8-(((2S)-4-(2-thiophenylsulfonyl)-1-(4-(2,2,2-trifluoro-1-hydroxy-1-methylethyl)phenyl)-2-piperazinyl)methyl)-3-oxa-8-azabicyclo[3.2.1]octan-6-ol], the EC50 in assay [1] (setting [3]) turned out to be 50 nM. Also, the IC50 in assay [2] (setting [4]) was determined as 42 nM.

In the case of `CC(C)CN(C[C@H]1CN(S(=O)(=O)c2cccnc2N)CCN1c1ncc(C(O)(C(F)(F)F)C(F)(F)F)cn1)S(C)(=O)=O` [Example 230 (2-amino-3-pyridinyl), N-(((2S)-4-((2-amino-3-pyridinyl)sulfonyl)-1-(5-(2,2,2-trifluoro-1-hydroxy-1-(trifluoromethyl)ethyl)-2-pyrimidinyl)-2-piperazinyl)methyl)-N-(2-methylpropyl)methanesulfonamide], the EC50 in assay [1] (setting [3]) amounted to 95 nM. Besides, in assay [2] (setting [4]), the IC50 amounted to 64 nM.

For the compound `CC(O)(c1ccc(N2CCN(S(=O)(=O)c3cccs3)C[C@@H]2CN2C3CCCC2CC(=O)C3)cc1)C(F)(F)F` (mixture of isomers) [Example 140, 9-(((2S)-4-(2-thiophenylsulfonyl)-1-(4-(2,2,2-trifluoro-1-hydroxy-1-methylethyl)phenyl)-2-piperazinyl)methyl)-9-azabicyclo[3.3.1]nonan-3-one], the EC50 in assay [1] (GK-GKRP EC50 (LC MS/MS-2)) amounted to 15 nM. In assay [2] (GK-GKRP IC50 (Binding)), this compound yielded a half-inhibitory concentration (IC50) of 7 nM.

Turning to `CC(=O)N(C[C@H]1CN(S(=O)(=O)c2cccs2)CCN1c1ccc(C(C)(O)C(F)(F)F)cc1)C(C)C` (mixture of isomers) [Example 196, N-(1-methylethyl)-N-(((2S)-4-(2-thiophenylsulfonyl)-1-(4-(2,2,2-trifluoro-1-hydroxy-1-methylethyl)phenyl)-2-piperazinyl)methyl)acetamide], the EC50 in assay [1] (setting [3]) is 391 nM. The IC50 in assay [2] (setting [4]) amounted to 466 nM.

`CC(O)(c1ccc(N2CCN(S(=O)(=O)c3cccs3)C[C@@H]2CN2CCOC[C@@H]2CO)cc1)C(F)(F)F` (single isomer, unassigned) [Example 111 Peak #1]: the EC50 in assay [1] (setting [3]) turned out to be 99 nM. Besides, the IC50 in assay [2] (setting [4]) was determined as 64 nM.

Consider `CC(C)CS(=O)(=O)N(C[C@H]1CN(S(=O)(=O)c2cccs2)CCN1c1ccc(C(C)(O)C(F)(F)F)cc1)c1cccnc1` (mixture of isomers) [Example 223, 2-methyl-N-3-pyridinyl-N-(((2R)-4-(2-thiophenylsulfonyl)-1-(4-(2,2,2-trifluoro-1-hydroxy-1-methylethyl)phenyl)-2-piperazinyl)methyl)-1-propanesulfonamide], for which the EC50 in assay [1] (setting [3]) stood at 86 nM. For the same compound, in assay [2] (setting [4]), the IC50 was determined as 35 nM.

For `C[C@H]1COCCN1C[C@H]1CN(S(=O)(=O)c2ccc(N)nc2)CCN1c1ncc(C(C)(O)C(F)(F)F)cn1` (mixture of isomers) [Example 129, 2-(2-((2S)-4-((6-amino-3-pyridinyl)sulfonyl)-2-(((3S)-3-methyl-4-morpholinyl)methyl)-1-piperazinyl)-5-pyrimidinyl)-1,1,1-trifluoro-2-propanol], the EC50 in assay [1] (setting [3]) came out at 99 nM. Further, the IC50 in assay [2] (setting [4]) was determined as 36 nM.

With `CCOC(=O)CC1COCCN1C[C@H]1CN(S(=O)(=O)c2cccs2)CCN1c1ccc(C(C)(O)C(F)(F)F)cc1` (mixture of isomers) [Example 113], the EC50 in assay [1] (setting [3]) is 308 nM. The IC50 in assay [2] (setting [4]) came out at 333 nM.

As for `C[C@H]1CN(S(=O)(=O)c2ccc(N)nc2)CCN1c1ccc(C(O)(C(F)(F)F)C(F)(F)F)cc1` [Example 92, 2-(4-((2S)-4-((6-amino-3-pyridinyl)sulfonyl)-2-methyl-1-piperazinyl)phenyl)-1,1,1,3,3,3-hexafluoro-2-propanol], the EC50 in assay [1] (setting [3]) came out at 233 nM. For the same compound, the IC50 in assay [2] (setting [4]) stood at 205 nM.

As for `CN(C[C@H]1CN(S(=O)(=O)c2cccs2)CCN1c1ccc(C(C)(O)C(F)(F)F)cc1)S(=O)(=O)c1cccnc1` (mixture of isomers) [Example 217, N-methyl-N-(((2S)-4-(2-thiophenylsulfonyl)-1-(4-(2,2,2-trifluoro-1-hydroxy-1-methylethyl)phenyl)-2-piperazinyl)methyl)-3-pyridinesulfonamide], the EC50 in assay [1] (setting [3]) amounted to 752 nM. In assay [2] (setting [4]), the IC50 worked out at 407 nM.

`CC(O)(c1ccc(N2CCN(S(=O)(=O)c3cccs3)C[C@@H]2CN(C2COC2)C2COC2)cc1)C(F)(F)F` (mixture of isomers) [Example 205, 2-(4-((2S)-2-((di-3-oxetanylamino)methyl)-4-(2-thiophenylsulfonyl)-1-piperazinyl)phenyl)-1,1,1-trifluoro-2-propanol]: the EC50 in assay [1] (setting [3]) was 480 nM. The IC50 in assay [2] (setting [4]) turned out to be 435 nM.

`CC(O)(c1ccc(N2CCN(S(=O)(=O)c3cccs3)C[C@@H]2CN2C3COCC2C(O)C3)cc1)C(F)(F)F` (single isomer, unassigned) [Example 78 Peak #3]: in assay [1] (setting [3]), the EC50 was 36 nM. In addition, the IC50 in assay [2] (setting [4]) is 33 nM.

For `C[C@H]1COCCN1C[C@H]1CN(S(=O)(=O)c2ccc(N)nc2)CCN1c1ncc(C(O)(C(F)(F)F)C(F)(F)F)cn1` [Example 128, 2-(2-((2S)-4-((6-amino-3-pyridinyl)sulfonyl)-2-(((3S)-3-methyl-4-morpholinyl)methyl)-1-piperazinyl)-5-pyrimidinyl)-1,1,1,3,3,3-hexafluoro-2-propanol], the EC50 in assay [1] (setting [3]) came to 34 nM. Moreover, the 50% inhibitory concentration (IC50) in assay [2] (setting [4]) was found to be 27 nM.

In the case of `CCC(C#Cc1cc(C(O)(C(F)(F)F)C(F)(F)F)ccc1N1CCC(S(=O)(=O)c2ccccc2)CC1)OC` (racemic) [Example 163, 1,1,1,3,3,3-hexafluoro-2-(3-(3-methoxypent-1-ynyl)-4-(4-(phenylsulfonyl)piperidin-1-yl)phenyl)-2-propanol], in assay [1] (setting [3]), the EC50 came out at 807 nM. Moreover, in assay [2] (setting [4]), the IC50 is 602 nM.

In the case of `C[C@H]1CN(S(=O)(=O)c2nccs2)CCN1c1ncc(C(O)(C(F)(F)F)C(F)(F)F)cn1` [Example 146, 1,1,1,3,3,3-hexafluoro-2-(2-((2S)-2-methyl-4-(1,3-thiazol-2-ylsulfonyl)-1-piperazinyl)-5-pyrimidinyl)-2-propanol], the EC50 in assay [1] (setting [3]) is 867 nM. In assay [2] (setting [4]), the IC50 came to 630 nM.

As for `CS(=O)(=O)N(C[C@H]1CN(S(=O)(=O)c2ccc(N)s2)CCN1c1ncc(C(O)(C(F)(F)F)C(F)(F)F)cn1)c1ccccc1` [Example 233, N-(((2R)-4-((5-amino-2-thiophenyl)sulfonyl)-1-(5-(2,2,2-trifluoro-1-hydroxy-1-(trifluoromethyl)ethyl)-2-pyrimidinyl)-2-piperazinyl)methyl)-N-phenylmethanesulfonamide], the EC50 in assay [1] (setting [3]) is 8 nM. Besides, the IC50 in assay [2] (setting [4]) was < 1 nM.

Take `CC(O)(c1ccc(N2CCN(S(=O)(=O)c3cccs3)C[C@@H]2CN(CC2CC2)S(C)(=O)=O)cc1)C(F)(F)F` (mixture of isomers) [Example 202, N-(cyclopropylmethyl)-N-(((2S)-4-(2-thiophenylsulfonyl)-1-(4-(2,2,2-trifluoro-1-hydroxy-1-methylethyl)phenyl)-2-piperazinyl)methyl)methanesulfonamide]: the EC50 in assay [1] (setting [3]) is 39 nM. In addition, the IC50 in assay [2] (setting [4]) worked out at 26 nM.
